Measurements published in patent US20160318866A1, “SUBSTITUTED BIPIPERIDINYL DERIVATIVES” (Bayer Pharma Aktiengesellschaft, priority 2013, published 2016).

Key:
human α2C receptor = molecular target: T1, human α2C receptor (Homo sapiens, UniProt P18825); test: Antagonism against the adrenoreceptor α2C (luminescence, recombinant CHO cell line); format: cell-based; conditions: antagonism against adrenoreceptor α2C; noradrenaline 20 nM; tested up to 10 μM; read-out: IC50
T1 construct: expressed in transfected cells; host or cells: CHO cells, also recombinantly expressing chimeric G protein Gαqi3 and mitochondrial obelin (mtOb)
T1 sequence (P18825 1-462): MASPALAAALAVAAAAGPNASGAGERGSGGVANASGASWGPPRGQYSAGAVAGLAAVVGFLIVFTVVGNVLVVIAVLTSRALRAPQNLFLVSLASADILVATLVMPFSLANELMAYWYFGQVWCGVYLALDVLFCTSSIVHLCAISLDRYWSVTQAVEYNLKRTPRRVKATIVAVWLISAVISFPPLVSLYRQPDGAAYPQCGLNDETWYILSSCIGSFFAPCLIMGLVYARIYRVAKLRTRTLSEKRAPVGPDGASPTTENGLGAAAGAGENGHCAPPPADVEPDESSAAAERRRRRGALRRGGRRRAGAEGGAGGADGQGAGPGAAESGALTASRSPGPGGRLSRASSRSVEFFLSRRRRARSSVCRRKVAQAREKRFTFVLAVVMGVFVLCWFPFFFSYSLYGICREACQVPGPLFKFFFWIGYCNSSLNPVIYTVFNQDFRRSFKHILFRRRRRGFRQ
In short: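 CHO cells expressing human α2C receptor with chimeric Gαqi3 and mitochondrial obelin, loaded with 2.5 μg/ml coelenterazine for one day at 30 °C.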

Wistar rat = test: Measurement of blood flow and blood pressure in rats (Wistar rats); format: in vivo; conditions: steady state, 32 min after start, vs initial flow, mean
Procedure: Wistar rats (Hsd Cpb:Wu) of a weight of 250-350 g or ZDF rats (ZDF/Crl-Lepr fa/fa) of a weight of 330-520 g were anaesthetized using 2.5% isoflurane in an oxygen/laughing gas mixture (40:60). To determine the blood flow in the carotid artery and the femoral artery, the anaesthetized rat was brought into a supine position, and the left carotid artery and the right femoral artery are then carefully exposed. Blood flow was measured by placing flow probes (Transonic Flowprobe) at the vessels. By introducing a PE50 artery catheter into the left femoral artery, blood pressure and heart rate were determined (Transducer Ref. 5203660: from Braun CH). The substances were administered as a bolus injection or a continuous infusion via a venous catheter in the left femoral vein.
Following the preparation of the animals, there was a 5 min baseline interval. Infusion of the AR alphα2C receptor antagonist was then started. In the steady state (32 min after the start of the experiment), the femoral flow was determined in relation (% difference) to the initial flow.

[1] = test system: diabetic (ZDFfa/fa) and healthy rats (Wistar); test: Assay of perfusion-enhancing substances (microcirculation), laser doppler at the paw; format: in vivo, rat; conditions: single oral dose
Text: In diabetic (ZDFfa/fa) and healthy rats (Wistar), a laser doppler probe was fastened under anaesthesia conditions (isoflurane anaesthesia) at the sole of the paw for measuring cutaneous microcirculation. The test animals were once treated orally with the test substances. During the experiment, microperfusion and temperature of the lower extremities were documented continuously. Here, a temperature-sensitive laser doppler probe (Periflux, O2C) was fastened with adhesive to the paws of the animals, allowing the measurement of microperfusion and skin temperature. The microcirculation measurement values were measured on both paws 30 min after oral administration of the test substance. […] Also stated is the MED for the significant increase of skin temperature (ttest).

## CC1CCCN(C2CCN(C(=O)c3ccc(C(C)(C)O)cc3)CC2)C1 (single isomer, unassigned) [Example 8, [4-(1-Hydroxy-1-methylethyl)phenyl)](3-methyl-1,4′-bipiperidin-1′-yl)methanone, (−)-enantiomer]
Human α2C receptor
  IC50: 163 nM
Wistar rat; 10 μg/kg/min
  Change in the femoral flow in %: 14.2 (n = 3) %
Wistar rat; 30 μg/kg/min infusion
  Change in the femoral flow in %: 3.1 (n = 5) %
Wistar rat; 300 μg/kg/min infusion
  Change in the femoral flow in %: 15.3 (n = 5) %
[1]; at the MED, 30 min after administration
  factor by which microcirculation is improved at this dose compared to placebo: 2.3 x
[1]; minimum effective dose for significant increase of skin temperature (ttest)
  MED [mg/kg] skin temperature: 1 mg/kg
[1]; minimum effective dose for significantly improved microcirculation vs placebo, 30 min after administration
  MED [mg/kg] microcirculation: 1 mg/kg
